The values below come from PubChem BioAssay (NCI).

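In this assay, cells in 96-well plates receive the compound at five concentrations for 48 hours. Endpoints are linearly interpolated between the surrounding concentrations. The concentration for 50% growth inhibition is given as GI50. TGI is the concentration that stops growth completely.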

Common to all, as to experiment: NCI anticancer screen, dose series, 48 h
Assay [1] deals with MCF7 breast.
Assay [2] has as its system HS 578T breast.
For assay [3], the system named is COLO 205 colon.
Assay [4] deals with MDA-MB-435.
Assay [5] concerns CCRF-CEM leukemia.
In assay [6] the test system is SF-295 CNS.
For assay [7], the system named is SK-MEL-28 melanoma.
Assay [8] concerns NCI/ADR-RES ovarian.
The test system of assay [9] is SW-620 colon.
The subject of assay [10] is K-562 leukemia.

For `O=C(Nc1ccc2[nH]c(C(=O)N3CC(CCl)c4c3cc([N+](=O)[O-])c3ccccc43)cc2c1)c1cc2ccccc2o1` (centres undefined), the GI50 in [1] is > 1100 µM; in [2] it was > 1100 µM; in assay [3] it was > 1100 µM; in [4], > 1100 µM; in assay [5], 66.4 µM; in assay [7], > 1100 µM. Also, the GI50 in [8] and in assay [9] was > 1100 µM throughout. Further, the TGI is > 1100 µM in [1]; > 1100 µM in [2]; > 1100 µM in assay [3]; > 1100 µM in [4]; 377 µM in assay [5]; > 1100 µM in assay [6]. The TGI in assay [7], in [8] and in [9] was > 1100 µM in each case.
Consider `CC(=O)C1COC(O)C1C` (centres undefined), for which the TGI in [1] was 67.3 µM; in [2], 68.8 µM; in assay [3] it was 34.5 µM; in [4], 30.2 µM; in assay [5], > 100 µM; in assay [6], 71.9 µM. Moreover, the TGI in [10] was > 100 µM; in assay [7] it was 38.6 µM; in assay [8], 48.6 µM; in [9], 44.2 µM.
Take `CCN(CC)CCCC(C)Nc1c2ccc(Cl)cc2nc2cc(OC)c(OC)cc12` (centres undefined): the GI50 is 0.656 µM in assay [1]; 2.75 µM in [2]; 1.65 µM in [4]; 1.52 µM in assay [5]; 1.5 µM in [6]; 2.4 µM in assay [10]. The GI50 in [7] was 1.72 µM; in assay [8], 2.47 µM; in assay [9], 1.35 µM. Also, the TGI in assay [1] came out at 2.9 µM; in [2], 10.1 µM; in assay [4], 3.08 µM; in [5], 10.3 µM; in assay [6], 3.24 µM; in assay [10] it was 8.77 µM. Moreover, the TGI in assay [7] was 3.37 µM; in assay [8], 9.69 µM; in assay [9], 7.54 µM.
With `COc1cc(F)cc([C@@H](CO)NC(=O)[C@@H](C)N2Cc3ccc(-c4nc(NC5CCOCC5)ncc4Cl)cc3C2=O)c1`, the GI50 in [1] was 9.67 µM; in assay [2], 4.96 µM; in [3], < 0.01 µM; in assay [4], 0.0347 µM; in assay [5], 17.1 µM; in assay [6], 14.7 µM. The GI50 in [10] is 0.536 µM; in assay [7] it was < 0.01 µM; in [8], 16.3 µM; in [9], 0.0761 µM. The TGI is 49.6 µM in [1]; > 81.9 µM in assay [2]; 2.37 µM in [3]; 31.8 µM in assay [4]; > 92.8 µM in assay [5]; 85.4 µM in assay [6]. For the same compound, the TGI in [10] is > 100 µM; in assay [7] it was 0.0318 µM; in assay [8], 78.2 µM; in assay [9], > 100 µM.
With `O=C(/C=C/c1cccc([N+](=O)[O-])c1)c1ccc(O)c(CN2CCN(c3cc4c(cc3F)c(=O)c(C(=O)O)cn4C3CC3)CC2)c1`, the GI50 in assay [1] is 0.332 µM; in assay [2], 2.43 µM; in [4], 1.67 µM; in assay [5], 1.6 µM; in assay [6], 1.88 µM; in assay [10], 0.404 µM. Besides, the GI50 in [7] was 1.75 µM; in assay [8] it was 2.85 µM; in assay [9], 1.1 µM. In addition, the TGI was 1.44 µM in assay [1]; 7.11 µM in assay [2]; 3.21 µM in [4]; 10.8 µM in [5]; 3.9 µM in [6]; > 100 µM in [10]. In addition, the TGI was determined as 3.2 µM in assay [7], 9.34 µM in [8] and 3.65 µM in assay [9].
With `COc1ccc(-c2nn(-c3cccc(Cl)c3)cc2-c2c(C#N)c(=O)n3[nH]c(-c4ccc(C)cc4)nc3c2C#N)cc1`, the GI50 in assay [1] is 3.22 µM; in assay [2], 1.23 µM; in assay [3], 2.32 µM; in [4], 1.48 µM; in assay [5] it was 1.23 µM; in assay [6] it was 1.2 µM. In addition, the GI50 in assay [10] was 1.43 µM; in assay [7], 6.55 µM; in [8] it was 9.43 µM; in assay [9], 0.521 µM. In addition, the TGI was 11.4 µM in assay [1]; 15 µM in assay [2]; 8.15 µM in [3]; 7.9 µM in assay [4]; > 50 µM in [5]; 4.14 µM in [6]. Also, the TGI in [10] is > 50 µM; in assay [7] it was 13.2 µM; in assay [8], 37.5 µM; in [9] it was 2.73 µM.
With `CCn1c2ccc(C(=O)CCCN(C)C)cc2c2cc(C(=O)CCCN(C)C)ccc21`, the TGI turned out to be 13.1 µM in assay [1]; 6.35 µM in [2]; 6.92 µM in [3]; 2.82 µM in assay [4]; 10.1 µM in [5]; 14.5 µM in [6]. For the same compound, the TGI is 32.3 µM in assay [10], 18.3 µM in assay [7], 21.9 µM in assay [8] and 3.76 µM in assay [9].
Consider `CN[C@@H]1C[C@H]2O[C@@](C)([C@@H]1OC)n1c3ccccc3c3c4c(c5c6ccccc6n2c5c31)C(=O)N[C@H]4O`, for which the GI50 in assay [1] is 0.0283 µM; in assay [2] it was 0.0191 µM; in assay [3], 0.0311 µM; in assay [4], 0.0613 µM; in assay [5] it was 0.0307 µM; in assay [6], 0.0268 µM. For the same compound, the GI50 in [10] is 0.129 µM; in [7] it was 0.0845 µM; in [8], 0.167 µM; in [9], 0.104 µM. Also, the TGI was 1.51 µM in [1]; 0.143 µM in assay [2]; 0.267 µM in [3]; 2.56 µM in assay [4]; > 10 µM in assay [5]; 0.26 µM in [6]. The TGI in [10] was > 6.56 µM; in assay [7], 1.48 µM; in [8], 0.907 µM; in assay [9] it was > 5.91 µM.
In the case of `COc1cc2c(cc1OC)C(CC1(O)CCCCC1)N(S(=O)(=O)c1ccc(C)cc1)CC2` (centres undefined), the GI50 in assay [1], in assay [2], in assay [3], in assay [4], in assay [5] and in [6] was > 10 µM throughout. For the same compound, the GI50 in [10], in [7], in assay [8] and in [9] was > 10 µM each time. Besides, the TGI in assay [1], in [2], in [3], in assay [4], in assay [5] and in assay [6] was > 10 µM throughout. Also, the TGI in assay [10], in assay [7], in assay [8] and in assay [9] was > 10 µM in each case.
Turning to `CC1(C)CCC[C@]2(C)c3cc(O)ccc3CC[C@@H]12`, the GI50 in [1] is 13.3 µM; in [2] it was 15.6 µM; in assay [3], 20.4 µM; in assay [4], 6.65 µM; in assay [6], 20.6 µM; in [10], 10.9 µM. Besides, the figures for the GI50 in [7], in assay [8] and in assay [9] were 19.6 µM, 16.5 µM and 13.8 µM, respectively. Further, the TGI is 37.1 µM in assay [1]; 31.3 µM in assay [2]; 46 µM in assay [3]; 21 µM in assay [4]; 44.6 µM in assay [6]; 29.5 µM in assay [10]. The TGI in assay [7] came to 37 µM; in [8] it was 32.5 µM; in [9], 29 µM.
With `Cc1ccc(C(=O)/C(=C\c2ccc([N+](=O)[O-])cc2)S(=O)Cc2ccc(F)cc2)cc1` (centres undefined), the GI50 in [2] was 2.87 µM; in assay [3] it was 1.92 µM; in assay [4] it was 1.76 µM; in assay [5], 0.752 µM; in assay [6] it was 1.94 µM; in assay [7], 1.82 µM. The GI50 in assay [8] was 2.28 µM; in assay [9] it was 1.56 µM. Also, the TGI in assay [2] is 8.76 µM; in [3], 3.76 µM; in assay [4] it was 3.65 µM; in assay [5], > 100 µM; in [6], 5.05 µM; in [7], 3.59 µM. The TGI in assay [8] is 5.97 µM; in assay [9] it was 3.26 µM.
As to `CCCCOC(=O)c1ccc(NC(=O)CCl)cc1`, the GI50 in [1] is 2.35 µM; in assay [2], 9.16 µM; in assay [4], 3.5 µM; in assay [5], 0.789 µM; in assay [6] it was 10.5 µM; in assay [10], 2.98 µM. In addition, the results for the GI50 in [7], in [8] and in [9] were 3.87 µM, 2.79 µM and 1.59 µM, respectively. The TGI in assay [1] was 10 µM; in assay [2], 57.3 µM; in [4], 14.3 µM; in assay [5], 6.07 µM; in assay [6], 23.1 µM; in assay [10], > 100 µM. Moreover, the results for the TGI in assay [7], in assay [8] and in assay [9] were 13.6 µM, 8.84 µM and 3.38 µM, respectively.
For the compound `N#C/C(=C\Nc1ccccn1)C(=O)c1ccco1`, the TGI in assay [1], in assay [2], in assay [3], in assay [4], in assay [6] and in assay [10] was > 100 µM each time. The TGI in assay [7], in [8] and in assay [9] was > 100 µM throughout.
In the case of `CN1CCN(C(=O)c2c(NC(=O)NS(=O)(=O)c3ccccc3)sc3c2CCCCC3)CC1`, the GI50 in assay [1] is 52.7 µM; in [2] it was 40.3 µM; in assay [4], 26.2 µM; in assay [5] it was 32.8 µM; in assay [6] it was 57.2 µM; in [10] it was 33.6 µM. The GI50 is 34 µM in assay [8] and 43.9 µM in assay [9]. Besides, the TGI in [1] is > 100 µM; in assay [2], > 100 µM; in assay [4], 67.8 µM; in assay [5] it was > 100 µM; in assay [6] it was > 100 µM; in [10], > 100 µM. Besides, the TGI in [8] and in assay [9] was > 100 µM in each case.
In the case of `N#Cc1ccc(C2C3=C(CCCC3=O)OC3=C2C(=O)c2ccccc2C3=O)cc1` (centres undefined), the GI50 is 0.664 µM in assay [1]; 3.21 µM in assay [2]; 1.86 µM in assay [3]; 0.216 µM in [4]; 0.951 µM in assay [5]; 1.83 µM in [6]. For the same compound, the GI50 in assay [7] was 1.82 µM; in assay [8] it was 0.899 µM; in [9], 2.21 µM. In addition, the TGI in assay [1] is 2.65 µM; in assay [2], 9.37 µM; in assay [3], 3.63 µM; in assay [4] it was 0.444 µM; in assay [5], > 100 µM; in assay [6] it was 3.9 µM. Further, the TGI stood at 3.3 µM in assay [7], 7.81 µM in [8] and 5.69 µM in assay [9].
Turning to `c1cncc(-c2nc3ccccc3s2)c1`, the GI50 in assay [1] was > 100 µM; in assay [2], 50.7 µM; in assay [3], > 100 µM; in [4], > 100 µM; in assay [6] it was > 100 µM; in [10] it was > 100 µM. Moreover, the GI50 in assay [7], in assay [8] and in assay [9] was > 100 µM each time. Besides, the TGI in assay [1], in [2], in assay [3], in [4], in assay [6] and in [10] was > 100 µM throughout. Further, the TGI in [7], in [8] and in assay [9] was > 100 µM each time.
Regarding `Cn1c(/C=C(\C#N)c2cccc(C(F)(F)F)c2)nc2c(N3CCOCC3)nc(Cl)nc21`, the GI50 in [2] is 1.26 µM; in assay [3] it was 1.12 µM; in assay [4] it was 1.02 µM; in assay [5], 0.23 µM; in assay [6], 1.83 µM; in assay [10], 0.344 µM. The figures for the GI50 in assay [7], in assay [8] and in [9] were 1.48 µM, 1.72 µM and 0.377 µM, respectively. In addition, the TGI in assay [2] came to 4.38 µM; in assay [3] it was 2.67 µM; in assay [4] it was 2.43 µM; in assay [5], 0.75 µM; in assay [6], 3.93 µM; in assay [10], 4.03 µM. The TGI was determined as 2.86 µM in assay [7], 6.72 µM in [8] and 1.4 µM in assay [9].
